The first assay concerns the target T1, human APJ receptor (Homo sapiens, UniProt P35414).
T1 construct: expressed in transfected cells; host or cells: HEK293
T1 sequence (P35414 1-380): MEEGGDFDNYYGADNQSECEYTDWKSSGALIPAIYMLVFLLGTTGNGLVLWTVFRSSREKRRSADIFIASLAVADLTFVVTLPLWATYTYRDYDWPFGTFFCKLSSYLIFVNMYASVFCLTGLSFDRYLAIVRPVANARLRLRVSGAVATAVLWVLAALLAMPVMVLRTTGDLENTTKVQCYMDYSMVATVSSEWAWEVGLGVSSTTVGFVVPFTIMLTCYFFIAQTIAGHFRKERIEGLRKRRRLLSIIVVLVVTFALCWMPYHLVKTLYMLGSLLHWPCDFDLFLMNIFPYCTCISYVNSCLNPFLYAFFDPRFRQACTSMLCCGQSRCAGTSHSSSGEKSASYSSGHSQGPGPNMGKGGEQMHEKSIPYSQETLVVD
Kind of assay: Intracellular cAMP accumulation assay (APJ hcAMP, HTRF). Format: cell-based. Particulars: HEK293 cells stably expressing human APJ receptor; inhibition of forskolin-mediated cAMP production; Table 1; read-out: hAPJ cAMP EC50 Potency range. Put shortly: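 HEK293 cells stably expressing the receptor (5,000/well) treated with compound plus […] and 2 μM forskolin for 30 min at room temperature; cAMP by HTRF against a cAMP standard curve. EC50 from variable-slope sigmoidal fit; Ymax as % of (Pyr1)apelin-13 inhibition.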
Regarding `CCCCc1nc(O)c(S(=O)(=O)c2ccc(-c3cccnc3C)cc2)c(O)c1N(C)c1ccccc1C` [Example 194, 6-butyl-5-(methyl(o-tolyl)amino)-3-((4-(2-methylpyridin-3-yl)phenyl)sulfonyl)pyri-dine-2,4-diol], the half-maximal effective concentration (EC50) is 10 to 100 nM. As to `CCCCc1nc(O)c(S(=O)(=O)c2ccc(-c3ccncc3C)cc2)c(O)c1N(CC)c1cc(C)cc(C)c1` [Example 133, 6-butyl-5-((3,5-dimethylphenyl)(ethyl)amino)-3-((4-(3-methylpyridin-4-yl)phenyl)sulfonyl)pyridine-2,4-diol], the concentration giving a half-maximal response (EC50) is 0.01 to 10 nM. Same read-out and setting: under `CCN(c1cccc(C#N)c1)c1c(-c2ccn(C)n2)nc(O)c(S(=O)(=O)c2ccc(-c3cccc(F)c3C(N)=O)cc2)c1O` [Example 215, 4′-((5-((3-cyanophenyl)(ethyl)ami-no)-2,4-dihydroxy-6-(1-methyl-1H-pyrazol-3-yl)pyridin-3-yl)sulfonyl)-3-fluoro-[1,1′-biphenyl]-2-carboxamide] stands 0.01 to 10 nM; under `CC(C)N(c1ccccc1)c1c(-c2ccn(C)n2)nc(O)c(S(=O)(=O)c2ccc(-c3ccccc3C(=O)N(C)C)cc2)c1O` [Example 159, 4′-((2,4-dihydroxy-5-(isopropyl(phen-yl)amino)-6-(1-methyl-1H-pyrazol-3-yl)pyridin-3-yl)sulfonyl)-N,N-dimethyl-[1,1′-biphenyl]-2-carboxamide], 0.01 to 10 nM; under `CCCCc1nc(O)c(S(=O)(=O)c2ccc(-c3ccnc(F)c3C)cc2)c(O)c1N(CC)c1cccc(C#N)c1` [Example 172, 3-((2-butyl-5-((4-(2-fluoro-3-methylpyridin-4-yl)phenyl)sulfonyl)-4,6-dihydroxypyridin-3-yl)(ethyl)amino)benzonitrile], 0.01 to 10 nM.

With `CCCCc1nc(O)c(S(=O)(=O)c2ccc(-c3ccccc3C(=O)NC)cc2)c(O)c1N1CCCOc2ccccc21` [Example 146, 4′-((6-butyl-5-(3,4-dihydrobenzo[b][1,4]oxazepin-5(2H)-yl)-2,4-dihydroxypyridin-3-yl)sulfonyl)-N-methyl-[1,1′-biphenyl]-2-carboxamide], the EC50 was 0.01 to 10 nM. Take `CCCCc1nc(O)c(S(=O)(=O)c2ccc(-c3ccccc3C(=O)NC)cc2)c(O)c1N(CC)c1cc(C)cc(C)c1` [Example 182, 4′-((6-butyl-5-((3,5-dimethyphenyl)(ethyl)a-mino)-2,4-dihydroxypyridin-3-yl)sulfonyl)-N-methyl-[1,1′-biphenyl]-2-carboxamide]: the EC50 lay in the range of 0.01 to 10 nM.

With `CCN(c1ccccc1)c1c(-c2cccc(C)c2)nc(O)c(S(=O)(=O)c2ccc(-c3ccnc(F)c3C)cc2)c1O` [Example 122, 5-(ethyl(phenyl)amino)-3-((4-(2-fluoro-3-methylpyridin-4-yl)phenyl)sulfonyl)-6-(m-tolyl)pyridine-2,4-diol], the EC50 is 0.01 to 10 nM. As for `CCCCc1nc(O)c(S(=O)(=O)c2ccc(-c3ccncc3C)cc2)c(O)c1N(C)c1cccc(C)c1` [Example 090, 6-butyl-5-(methyl(m-tolyl)amino)-3-((4-(3-methylpyridin-4-yl)phenyl)sulfonyl)pyridine-2,4-diol], the EC50 was 0.01 to 10 nM. Still for that read-out and setting: under `CCCCc1nc(O)c(S(=O)(=O)c2ccc(C3CC3)cc2)c(O)c1N(C)c1ccccc1` [Example 016, 6-butyl-3-((4-cyclopropylphenyl)sulfonyl)-5-(methyl(phenyl)amino)pyridine-2,4-diol] stands 0.01 to 10 nM; under `CCCCc1nc(O)c(S(=O)(=O)c2ccc(-c3ccccc3C(N)=O)cc2)c(O)c1N(C)c1ccccc1C` [Example 195, 4′-((6-butyl-2,4-dihydroxy-5-(methyl(o-tolyl)amino)pyridin-3-yl)sulfonyl)-[1,1′-biphenyl]-2-carboxamide], 0.01 to 10 nM; under `CCN(c1ccccc1)c1c(CC2CC2)nc(O)c(S(=O)(=O)c2ccc(-c3ccc(F)nc3C)cc2)c1O` [Example 051, 6-(cyclopropylmethyl)-5-(ethyl(phenyl)amino)-3-((4-(6-fluoro-2-methylpyridin-3-yl)phenyl)sulfonyl)pyridine-2,4-diol], 0.01 to 10 nM.

With `CCCCc1nc(O)c(S(=O)(=O)c2ccc(-c3ccccc3C(=O)NC3CC3)cc2)c(O)c1N(C)c1ccccc1C` [Example 208, 4′-((6-butyl-2,4-dihydroxy-5-(methyl(o-tolyl)amino)pyridin-3-yl)sulfonyl)-N-cyclopropyl-[1,1′-biphenyl]-2-carboxamide], the EC50 lay within 0.01 to 10 nM. Take `CCN(c1ccccc1)c1c(-c2cnn(C)c2)nc(O)c(S(=O)(=O)c2ccc(-c3cccnc3C)cc2)c1O` [Example 150, 5-(ethyl(phenyl)amino)-6-(1-methyl-1H-pyrazol-4-yl)-3-((4-(2-methylpyridin-3-yl)phenyl)sulfonyl)pyri-dine-2,4-diol]: the EC50 is 0.01 to 10 nM. Still for that read-out and setting: under `CCCCc1nc(O)c(S(=O)(=O)c2ccc(-c3ccnc(F)c3C)cc2)c(O)c1N(C)c1ccc(OC)cc1` [Example 038, 6-butyl-3-((4-(2-fluoro-3-methylpyridin-4-yl)phenyl)sulfonyl)-5-((4-methoxyphenyl)(methyl)amino)pyridine-2,4-diol] stands 0.01 to 10 nM. With `CCCCc1nc(O)c(S(=O)(=O)c2ccc(-c3cccnc3C)cc2)c(O)c1N(CC)c1cc(C)cc(C)c1` [Example 183, 6-butyl-5-((3,5-di-methylphenyl)(ethyl)a-mino)-3-((4-(2-methylpyridin-3-yl)phenyl)sulfonyl)pyri-dine-2,4-diol], the half-maximal effective concentration (EC50) is 10 to 100 nM. In the case of `Cc1c(-c2ccc(S(=O)(=O)c3c(O)nc(-c4ccn(C)n4)c(N4CC(C)(C)c5ccccc54)c3O)cc2)ccnc1F` [Example 160, 5-(3,3-dimethylindolin-1-yl)-3-((4-(2-fluoro-3-methylpyridin-4-yl)phenyl)sulfonyl)-6-(1-methyl-1H-pyrazol-3-yl)pyridine-2,4-diol], the concentration for a half-maximal effect (EC50) fell in the range of 10 to 100 nM. The same measure, in the same setting: under `CCN(c1ccccc1)c1c(-c2cnn(C)c2)nc(O)c(S(=O)(=O)c2ccc(-c3ccncc3C)cc2)c1O` [Example 156, 5-(ethyl(phenyl)amino)-6-(1-methyl-1H-pyraozl-4-yl)-3-((4-(3-methylpyridin-4-yl)phenyl)sulfonyl)pyri-dine-2,4-diol] stands 0.01 to 10 nM; under `CCCCc1nc(O)c(S(=O)(=O)c2ccc(-c3ccc(F)nc3C)cc2)c(O)c1N(C)c1cccc(OC)c1` [Example 030, 6-butyl-3-((4-(6-fluoro-2-methylpyridin-3-yl)phenyl)sulfonyl)-5-((3-methoxyphenyl)(methyl)amino)pyridine-2,4-diol], 10 to 100 nM; under `CCCCc1nc(O)c(S(=O)(=O)c2ccc(-c3ccnc(F)c3C)cc2)c(O)c1N(c1ccccc1)C(C)C` [Example 020], 0.01 to 10 nM. As to `CCN(c1ccccc1)c1c(CC2CC2)nc(O)c(S(=O)(=O)c2ccc(-c3ccnc(F)c3C)cc2)c1O` [Example 049, 6-(cyclopropylmethyl)-5-(ethyl(phenyl)amino)-3-((4-(2-fluoro-3-methylpyridin-4-yl)phenyl)sulfonyl)pyridine-2,4-diol], the half-maximal effective concentration (EC50) lay in the range of 0.01 to 10 nM. The same measure, in the same setting: under `CCN(c1ccccc1)c1c(-c2ccn(C)n2)nc(O)c(S(=O)(=O)c2ccc(-c3ccccc3C(N)=O)cc2)c1O` [Example 148, 4′-((5-(ethyl(phenyl)amino)-2,4-dihydroxy-6-(1-methyl-1H-pyrazol-3-yl)pyridin-3-yl)sulfonyl)-[1,1′-biphenyl]-2-carboxamide] stands 0.01 to 10 nM; under `CCCCc1nc(O)c(S(=O)(=O)c2ccc(-c3ccnc(F)c3C)cc2)c(O)c1N1CCCc2ccccc21` [Example 028, 6-butyl-5-(3,4-dihydroquinolin-1(2H)-yl)-3-((4-(2-fluoro-3-methylpyridin-4-yl)phenyl)sulfonyl)pyridine-2,4-diol], 0.01 to 10 nM.

The assay is the same for the next values; noted with them: HEK293 cells stably expressing human APJ receptor; inhibition of forskolin-mediated cAMP production; Table 2; read-out: hAPJ cAMP EC50 Potency range.
In the case of `CCN(c1ccccc1)c1c(-c2ccn(C)n2)nc(O)c(C(=O)N2CCC(c3ncc(Cl)cc3F)C2)c1O` (stereo not drawn) [Example 204, (3-(5-chloro-3-fluoropyridin-2-yl)pyrrolidin-1-yl)(5-(ethyl(phenyl)amino)-2,4-dihydroxy-6-(1-methyl-1H-pyrazol-3-yl)pyridin-3-yl)methanone], the concentration for a half-maximal effect (EC50) was in the range of 0.01 to 10 nM.

Still in this assay, the particulars now being: hAPJ cAMP EC50 Potency range, HEK293 cells stably expressing human APJ receptor; inhibition of forskolin-mediated cAMP production; Table 1.
`CCCCc1nc(O)c(C(=O)N2CCC(c3ncc(Cl)cc3F)C2)c(O)c1N(CC)c1ccccc1` (stereo not drawn) [Example 070, (6-butyl-5-(ethyl(phenyl)amino)-2,4-dihydroxypyridin-3-yl)(3-(5-chloro-3-fluoropyridin-2-yl)pyrrolidin-1-yl)methanone] showed an EC50 of 0.01 to 10 nM. Still for that read-out and setting: under `CCCCc1nc(O)c(C(=O)N2CC[C@H](c3ccccc3)C2)c(O)c1N1CCc2ccccc21` [Example 009, (R)-(6-butyl-2,4-dihydroxy-5-(indolin-1-yl)pyridin-3-yl)(3-phenylpyrrolidin-1-yl)methanone] stands 10 to 100 nM.

Still in this assay, the particulars now being: read-out: hAPJ cAMP EC50 Potency range; HEK293 cells stably expressing human APJ receptor; inhibition of forskolin-mediated cAMP production; Table 1.
As for `CCCCc1nc(O)c(C(=O)N2CCC(c3ncc(F)cc3F)C2)c(O)c1N(CC)c1ccccc1` (stereo not drawn) [Example 073, (6-butyl-5-(ethyl(phenyl)amino)-2,4-dihydroxypyridin-3-yl)(3-(3,5-difluoropyridin-2-yl)pyrrolidin-1-yl)methanone], the half-maximal effective concentration (EC50) lay in the range of 0.01 to 10 nM.

These data come from patent US10669258B2, “3-sulfonyl-5-aminopyridine-2,4-diol APJ agonists” (BRISTOL-MYERS SQUIBB COMPANY, priority 2016, dated 2020).
